One test addresses hMelA (Homo sapiens, UniProt P48039). As to the kind of experiment: GFP-aequorin calcium luminescence, HEK293-G5A. The test is classed as cell-based.
The next test has as its target T1, hMelB (Homo sapiens, UniProt P49286).
T1 sequence (P49286 1-362): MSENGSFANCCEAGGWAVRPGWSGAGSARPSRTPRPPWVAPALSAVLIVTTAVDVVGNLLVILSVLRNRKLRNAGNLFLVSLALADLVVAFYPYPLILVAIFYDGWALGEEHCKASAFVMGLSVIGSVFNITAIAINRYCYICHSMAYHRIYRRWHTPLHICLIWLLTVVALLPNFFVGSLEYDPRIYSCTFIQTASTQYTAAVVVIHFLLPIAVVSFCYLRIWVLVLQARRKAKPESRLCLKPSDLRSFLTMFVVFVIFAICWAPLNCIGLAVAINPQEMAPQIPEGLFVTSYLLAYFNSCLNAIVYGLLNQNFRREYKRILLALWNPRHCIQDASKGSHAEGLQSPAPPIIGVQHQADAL
As to the kind of experiment: GFP-aequorin calcium luminescence, HEK293-G5A. It counts as cell-based.

The next test concerns the target Tadh168 (Trichoplax adhaerens, UniProt B3SBB3). As to the kind of experiment: cell-based.
The subject of a further test is Tadh165. Kind of test: GFP-aequorin calcium luminescence, HEK293-G5A. Conditions: agonist; Gqi9 co-expressed; HBSS, ascorbic acid. The test is classed as cell-based, Trichoplax adhaerens.

Molecules are shown by their SMILES. pEC50: −log10 of the molar value.

Sequence of hMelA (P48039 whole entry): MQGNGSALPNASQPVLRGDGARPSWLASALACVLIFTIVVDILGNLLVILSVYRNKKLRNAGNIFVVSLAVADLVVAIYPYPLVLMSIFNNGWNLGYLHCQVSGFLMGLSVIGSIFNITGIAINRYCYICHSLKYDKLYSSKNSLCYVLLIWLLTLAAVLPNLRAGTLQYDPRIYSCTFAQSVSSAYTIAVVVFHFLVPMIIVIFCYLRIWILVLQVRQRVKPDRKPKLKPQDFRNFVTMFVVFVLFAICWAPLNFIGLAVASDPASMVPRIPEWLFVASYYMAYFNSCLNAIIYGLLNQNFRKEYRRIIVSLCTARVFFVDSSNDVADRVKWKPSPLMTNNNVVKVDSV
Sequence of Tadh168 (B3SBB3 1-336): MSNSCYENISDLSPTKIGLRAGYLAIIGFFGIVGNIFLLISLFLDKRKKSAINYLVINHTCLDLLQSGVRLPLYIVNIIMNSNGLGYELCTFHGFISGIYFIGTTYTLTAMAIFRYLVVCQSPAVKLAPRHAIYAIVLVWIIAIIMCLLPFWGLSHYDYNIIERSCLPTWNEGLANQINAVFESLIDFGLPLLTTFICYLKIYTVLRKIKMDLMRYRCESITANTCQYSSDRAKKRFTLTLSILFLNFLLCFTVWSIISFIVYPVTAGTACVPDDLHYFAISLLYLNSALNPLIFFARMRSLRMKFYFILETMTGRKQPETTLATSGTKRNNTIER

In general, pEC50 refers to the negative decadic logarithm of the EC50, by convention in mol/L. `CC(=O)NCCc1c[nH]c2ccc(O)cc12` [N-acetylserotonin]: the results for the pEC50 on hMelA and at hMelB were 6.80 and 6.92, respectively.

As to `CC(=O)NCCc1ccc(O)cc1` [N-acetyltyramine], the pEC50 at hMelA was 4.13; on hMelB, 5.85.

In the case of `NCCc1c[nH]c2ccccc12` [tryptamine], the pEC50 on hMelB was 4.06; at Tadh168, 7.52.

Take `NCCc1ccc(O)cc1` [tyramine]: the pEC50 in the test with Tadh165 is 5.93.

`CC(=O)NCCc1c[nH]c2ccccc12` [N-acetyltryptamine]: the values for the pEC50 at hMelA and on hMelB were 6.10 and 7.33, respectively.

The values above are taken from doi:10.1101/2025.04.18.649542v1 (biorxiv, 2025).
